# According to US20250161273A1, “PHARMACEUTICAL COMPOSITION COMPRISING DIPHENYLDIAZOLE DERIVATIVES AND METHODS OF USE” (MODAG GMBH, priority 2022, published 2025):
# Where two headings read alike, the source gives them in different places.
# Assay: phase 1 study in patients with mild to moderate Parkinson's disease (PK, safety)
# Type: in vivo, human
# Settings: for AR AUC (accumulation ratio, geometric mean): AUC(0-tau); for Frel AUC(0-24) / Frel Cmax: Day 9 fed vs Day 7 QD fasted; for concentration at 3 h: po; for Cmax / Tmax / AUC / concentration at 24 h / Tmax at 7 days / half-life at 7 days / half-life / AUC(0-t) / concentration at 12 h / AUC(0-inf): oral; for Cmax: read-out: Cmax (geometric mean); for AUC: read-out: AUC(0-tau) (geometric mean); for AUC(0-inf): read-out: AUC(0-inf) (geometric mean)
# Text: Study Title: A Single Part Study to Assess the Safety, Tolerability, Pharmacokinetics and Pharmacodynamics of Multiple Ascending Oral Doses of anle138b, and to Characterize the Effect of Food on the Pharmacokinetics of anle138b in Patients with Mild to Moderate Parkinson's Disease.
# This was a two-center, double-blind, randomised, placebo-controlled study that enrolled twenty two (22) participants in cohorts (i.e. regimens) A-C. All completed the study per protocol. After completion of Cohorts A to C it was decided to add Cohorts D and E of 24 subjects. Cohort D expanded sample size of previous dosing regiments 150 mg and 300 mg QD and Cohort E administration of anle138b 300 mg for 28 days, under non fasted conditions.
# Drug product used is described in section 1.3, supra, placebo was vehicle in capsule. Subjects were between 50 and 80 years of age with a diagnosis of idiopathic PD as defined by the Movement Disorders Society criteria (either fulfilling criteria for “Clinically Established PD” or for “Clinically Probable PD”). They had to present with Hoehn and Yahr stage I-III (i.e. able to walk unaided), and stable medication for PD for 1 month prior to inclusion and anticipated over the study period. The subjects were randomly assigned to receive one of three drug regimens, A, B or C, as follows: • Regimen A—150 mg (5×30 mg) anle138b oral capsules or matching placebo QD, for 7 consecutive days in the fasted state, followed by a single administration of 150 mg anle138b oral capsule or matching placebo on Day 9 in the fed state, • Regimen B—300 mg (10×30 mg) anle138b oral capsules or matching placebo QD, for 7 consecutive days in the fasted state, followed by a single administration of 300 mg anle138b oral capsule (10×30 mg capsules) or matching placebo on Day 9 in the fed state, • Regimen C—150 mg (5×30 mg) anle138b oral capsules or matching placebo BID (total 300 mg daily), […]
# Primary endpoints provided safety and tolerability information for the test product by assessing: AEs, vital signs, ECGs, physical examinations and laboratory safety tests, and to provide additional safety and tolerability information for the test product taken also in the fed state by assessing: AEs, vital signs, ECGs, physical examinations and laboratory safety tests.
# Secondary endpoints provided PK information for the test product in PD patients by assessing plasma exposure under fast and fed conditions.
# [1] = PD patients, Regimen A 150 mg, Day 1, fasted
# [2] = PD patients, Regimen B 300 mg, Day 1, fasted
compound,measurement,setting,value
"Brc1cccc(-c2cc(-c3ccc4c(c3)OCO4)n[nH]2)c1 [anle138b, 3-(1,3-benzodioxol-5-yl)-5-(3-bromophenyl)-1H-pyrazole]","AR Cmax (accumulation ratio, geometric mean)","PD patients, Regimen A 150 mg QD, Day 7",0.346
same,"AR AUC (accumulation ratio, geometric mean)","PD patients, Regimen A 150 mg QD, Day 7, tau 24 h",0.371
same,"T1/2, individual subject values","PD patients, Regimen A 150 mg QD, Day 7, n = 2",16.25 h
same,maximum individual AUC(0-24) as % of the exposure limit in the protocol,[1],~6.19%
same,maximum individual Cmax as % of the exposure limit in the protocol,[1],approximately 24.9%
same,Frel AUC(0-24),"PD patients, Regimen A 150 mg",132%
same,Frel Cmax,"PD patients, Regimen A 150 mg",104%
same,Tmax (median),"PD patients, Regimen B 300 mg QD (row prints fed, title fasted state), Day 7",1.6 h
same,"AR Cmax (accumulation ratio, geometric mean)","PD patients, Regimen B 300 mg QD, Day 7",0.428
same,"AR AUC (accumulation ratio, geometric mean)","PD patients, Regimen B 300 mg QD, Day 7, tau 24 h",0.351
same,maximum individual AUC(0-24) as % of the exposure limit in the protocol,[2],~8.4%
same,maximum individual Cmax as % of the exposure limit in the protocol,[2],~75.8%
same,Frel AUC(0-24),"PD patients, Regimen B 300 mg",109%
same,Frel Cmax,"PD patients, Regimen B 300 mg",71.4%
same,maximum individual Cmax as % of the exposure limit in the protocol,"PD patients, Regimen C 150 mg BID, Day 1, fasted",~26.4%
same,maximum individual AUC as % of the exposure limit in the protocol,"PD patients, Regimen C 150 mg BID, Day 1, fasted, AUC(0-12) vs limit based on AUC(0-24)",~4.94%
same,"AR Cmax (accumulation ratio, geometric mean)","PD patients, Regimen C 150 mg BID, Day 7",0.333
same,"AR AUC (accumulation ratio, geometric mean)","PD patients, Regimen C 150 mg BID, Day 7, tau 12 h",0.299
same,safety and tolerability (in words),"PD patients, doses up to 300 mg",safe and well tolerated
same,concentration at 3 h,"human, CSF, 300 mg, PD patients, multiple QD oral doses of 300 mg, fasted, 3 h post-dose on Day 5, read-out: CSF anle138b concentration (geometric mean)",0.319 ng/mL
same,Kp at 3 h,"human, CSF/plasma, PD patients, multiple QD oral doses of 300 mg, fasted, 3 h post-dose on Day 5, read-out: CSF/plasma anle138b concentration ratio (geometric mean)",0.0024
same,Cmax,"human, plasma, 150 mg, PD patients, Regimen A 150 mg QD (row prints fed, title fasted state), Day 1",~462 ng/mL
same,Tmax,"human, plasma, 150 mg, PD patients, Regimen A 150 mg QD (row prints fed, title fasted state), Day 1, read-out: Tmax (median)",1.25 h
same,Tmax,"human, plasma, 150 mg, PD patients, Regimen A 150 mg QD (row prints fed, title fasted state), Day 1, read-out: Tmax (range)",1 to 1.5 h
same,AUC,"human, plasma, 150 mg, PD patients, Regimen A 150 mg QD (row prints fed, title fasted state), Day 1, tau 24 h",~1040 ng·h/mL
same,concentration at 24 h,"human, plasma, 150 mg, PD patients, Regimen A 150 mg QD (row prints fed, title fasted state), Day 1, tau 24 h, read-out: Ctau (geometric mean)",3.76 ng/mL
same,Cmax,"human, plasma, 150 mg, PD patients, Regimen A 150 mg QD (row prints fed, title fasted state), Day 7",~160 ng/mL
same,Tmax at 7 days,"human, plasma, 150 mg, PD patients, Regimen A 150 mg QD (row prints fed, title fasted state), Day 7, read-out: Tmax (median)",1 h
same,Tmax at 7 days,"human, plasma, 150 mg, PD patients, Regimen A 150 mg QD (row prints fed, title fasted state), Day 7, read-out: Tmax (range)",1 to 2 h
same,AUC,"human, plasma, 150 mg, PD patients, Regimen A 150 mg QD (row prints fed, title fasted state), Day 7, tau 24 h",~388 ng·h/mL
same,concentration at 24 h,"human, plasma, 150 mg, PD patients, Regimen A 150 mg QD (row prints fed, title fasted state), Day 7, tau 24 h, read-out: Ctau (geometric mean)",1.86 ng/mL
same,half-life at 7 days,"human, plasma, 150 mg, PD patients, Regimen A 150 mg QD, Day 7, n = 2, read-out: T1/2, individual subject values (converted)",17.1 h
same,half-life,"human, plasma, 150 mg, PD patients, Regimen A 150 mg single dose on Day 9, fed state, n = 3, read-out: T1/2 (geometric mean) (converted)",15.9 h
same,AUC(0-t),"human, plasma, 150 mg, PD patients, Regimen A 150 mg single dose on Day 9, fed state, read-out: AUC(0-24) (geometric mean)",513 ng·h/mL
same,AUC(0-t),"human, plasma, 150 mg, PD patients, Regimen A 150 mg single dose on Day 9, fed state, read-out: AUC(0-last) (geometric mean)",542 ng·h/mL
same,concentration at 24 h,"human, plasma, 150 mg, PD patients, Regimen A 150 mg single dose on Day 9, fed state, read-out: C24 (geometric mean)",1.87 ng/mL
same,Cmax,"human, plasma, 150 mg, PD patients, Regimen A 150 mg single dose on Day 9, fed state",167 ng/mL
same,Tmax,"human, plasma, 150 mg, PD patients, Regimen A 150 mg single dose on Day 9, fed state, read-out: Tmax (median)",3 h
same,Tmax,"human, plasma, 150 mg, PD patients, Regimen A 150 mg single dose on Day 9, fed state, read-out: Tmax (range)",1.5 to 4 h
same,Cmax,"human, plasma, 150 mg, PD patients, Regimen C 150 mg BID, fast, Day 1",~546 ng/mL
same,Tmax,"human, plasma, 150 mg, PD patients, Regimen C 150 mg BID, fast, Day 1, read-out: Tmax (median)",1 h
same,Tmax,"human, plasma, 150 mg, PD patients, Regimen C 150 mg BID, fast, Day 1, read-out: Tmax (range)",1 to 2 h
same,AUC,"human, plasma, 150 mg, PD patients, Regimen C 150 mg BID, fast, Day 1, tau 12 h",~993 ng·h/mL
same,concentration at 12 h,"human, plasma, 150 mg, PD patients, Regimen C 150 mg BID, fast, Day 1, tau 12 h, read-out: Ctau (geometric mean)",7.41 ng/mL
same,Cmax,"human, plasma, 150 mg, PD patients, Regimen C 150 mg BID, fast, Day 7",~182 ng/mL
same,half-life at 7 days,"human, plasma, 150 mg, PD patients, Regimen C 150 mg BID, fast, Day 7, read-out: T1/2 (geometric mean) (converted)",14.1 h
same,Tmax at 7 days,"human, plasma, 150 mg, PD patients, Regimen C 150 mg BID, fast, Day 7, read-out: Tmax (median)",1 h
same,Tmax at 7 days,"human, plasma, 150 mg, PD patients, Regimen C 150 mg BID, fast, Day 7, read-out: Tmax (range)",1 to 1.5 h
same,AUC,"human, plasma, 150 mg, PD patients, Regimen C 150 mg BID, fast, Day 7, tau 12 h",~297 ng·h/mL
same,concentration at 12 h,"human, plasma, 150 mg, PD patients, Regimen C 150 mg BID, fast, Day 7, tau 12 h, read-out: Ctau (geometric mean)",4.05 ng/mL
same,half-life,"human, plasma, 150 mg, patient, 150 mg once daily for 7 consecutive days, fed conditions as printed, day 7, read-out: T½ of anle138b (clause 14) (converted)",~11.7 h
same,Cmax,"human, plasma, 300 mg, PD patients, Regimen B 300 mg QD (row prints fed, title fasted state), Day 1",~933 ng/mL
same,Tmax,"human, plasma, 300 mg, PD patients, Regimen B 300 mg QD (row prints fed, title fasted state), Day 1, read-out: Tmax (median)",1.5 h
same,Tmax,"human, plasma, 300 mg, PD patients, Regimen B 300 mg QD (row prints fed, title fasted state), Day 1, read-out: Tmax (range)",1 to 4 h
same,AUC,"human, plasma, 300 mg, PD patients, Regimen B 300 mg QD (row prints fed, title fasted state), Day 1, tau 24 h",~2500 ng·h/mL
same,concentration at 24 h,"human, plasma, 300 mg, PD patients, Regimen B 300 mg QD (row prints fed, title fasted state), Day 1, tau 24 h, read-out: Ctau (geometric mean)",6.81 ng/mL
same,Cmax,"human, plasma, 300 mg, PD patients, Regimen B 300 mg QD (row prints fed, title fasted state), Day 7",~365 ng/mL
same,Tmax at 7 days,"human, plasma, 300 mg, PD patients, Regimen B 300 mg QD (row prints fed, title fasted state), Day 7, read-out: Tmax (median)",1.5 h
same,Tmax at 7 days,"human, plasma, 300 mg, PD patients, Regimen B 300 mg QD (row prints fed, title fasted state), Day 7, read-out: Tmax (range)",1 to 2 h
same,AUC,"human, plasma, 300 mg, PD patients, Regimen B 300 mg QD (row prints fed, title fasted state), Day 7, tau 24 h",~722 ng·h/mL
same,concentration at 24 h,"human, plasma, 300 mg, PD patients, Regimen B 300 mg QD (row prints fed, title fasted state), Day 7, tau 24 h, read-out: Ctau (geometric mean)",3.19 ng/mL
same,half-life at 7 days,"human, plasma, 300 mg, PD patients, Regimen B 300 mg QD, Day 7, read-out: T1/2 (geometric mean) (converted)",11.8 h
same,half-life,"human, plasma, 300 mg, PD patients, Regimen B 300 mg single dose on Day 9, fed state, n = 4, read-out: T1/2 (geometric mean) (converted)",13 h
same,AUC(0-t),"human, plasma, 300 mg, PD patients, Regimen B 300 mg single dose on Day 9, fed state, read-out: AUC(0-24) (geometric mean)",795 ng·h/mL
same,AUC(0-t),"human, plasma, 300 mg, PD patients, Regimen B 300 mg single dose on Day 9, fed state, read-out: AUC(0-last) (geometric mean)",831 ng·h/mL
same,concentration at 24 h,"human, plasma, 300 mg, PD patients, Regimen B 300 mg single dose on Day 9, fed state, read-out: C24 (geometric mean)",2.88 ng/mL
same,Cmax,"human, plasma, 300 mg, PD patients, Regimen B 300 mg single dose on Day 9, fed state",231 ng/mL
same,Tmax,"human, plasma, 300 mg, PD patients, Regimen B 300 mg single dose on Day 9, fed state, read-out: Tmax (median)",3 h
same,Tmax,"human, plasma, 300 mg, PD patients, Regimen B 300 mg single dose on Day 9, fed state, read-out: Tmax (range)",3 to 4 h
same,AUC(0-inf),"human, plasma, PD patients, Regimen A 150 mg single dose on Day 9, fed state, n = 3",599 ng·h/mL
same,AUC(0-inf),"human, plasma, PD patients, Regimen B 300 mg single dose on Day 9, fed state, n = 4",826 ng·h/mL
same,concentration at 3 h,"human, plasma, 300 mg, PD patients, multiple QD oral doses of 300 mg, fasted, 3 h post-dose on Day 5, read-out: plasma anle138b concentration (geometric mean)",133 ng/mL
